The values below come from patent publication EP4722216A1, “PYRROLOPYRIMIDINE DERIVATIVE AND USE THEREOF IN MEDICINE” (Kangbaida (Sichuan) Biotechnology Co., Ltd., priority 2023, dated 2024).

The target in one series is T1, FGFR1 (Homo sapiens, UniProt P11362).
T1 construct: purchased Carna 08-133
The experiment in a line: FGFR1-4 enzymology, HTRF method (FGFR1). It is filed as biochemical. As to conditions: FGFR1 enzyme 0.10 nM, substrate (TK) 1 µM, ATP 40 µM. Here is the method: (§1) The inhibitory effects of compounds on the enzymatic activities of FGFR1, 2, 3, and 4 were detected by using HTRF method (PerkinElmer, 62TK0PEJ). 2× Enzyme and 2× substrate /ATP mixed solutions were prepared using a buffer solution. The final concentrations of FGFR1 enzyme (Cama, 08-133), the substrate (TK), and ATP were 0.10 nM, 1 µM, and 40 µM, respectively; the final concentrations of FGFR2 (Carna, 08-134), the substrate (TK), and ATP were 0.08 nM, 1 µM, and 20 µM, respectively; the final concentrations of FGFR3 (Cama, 08-135), the substrate (TK), and ATP were 0.30 nM, 1 µM, and 50 µM, respectively; and the final concentrations of FGFR4 (Carna, 08-136), the substrate (TK), and ATP were 10 nM, 1 µM, and 50 µM, respectively. The compound stock solution was diluted to 100× working concentration using DMSO. 50 nL/well of the compound was transferred to a 384-well plate using Echo, with 2 replicate wells per concentration. 2.5 µL/well of 2× kinase solution was added to reaction wells, mixed and incubated at 25°C for 10 min. 2.5 µL/well of 2× substrate/ATP solution was added to reaction wells and incubated at 25°C for 50 min. 2× Streptavidin-XL665/Cryptate-antibody mixed solution was prepared using a detection buffer solution (containing EDTA). 5 µL/well of a kinase detection reagent was added to the reaction wells and incubated at 25°C for 60 min. Fluorescence signals at 620 nm (Cryptate) and 665 nm (XL665) were read by a multifunctional microplate reader. IC50 (median inhibitory concentration) of the compound was calculated using the GraphPad nonlinear fitting formula, Y=Bottom + (Top-Bottom)/(1+10^((LogIC50-X) ×HillSlope)), in which X: the logarithmic value of the concentration of the compound; and Y: the inhibition rate of the compound (% inhibition).

The next series has as its target T2, FGFR2 (Homo sapiens, UniProt P21802).
T2 construct: purchased Carna 08-134
Put plainly: FGFR1-4 enzymology, HTRF method (FGFR2). It counts as biochemical. As to conditions: FGFR2 0.08 nM, substrate (TK) 1 µM, ATP 20 µM. Here is the method: as §1
A general note: Time-resolved FRET reads energy transfer from a long-lived donor to a nearby acceptor.

The next series has as its target T3, FGFR3 (Homo sapiens, UniProt P22607).
T3 construct: purchased Carna 08-135
Put plainly: FGFR1-4 enzymology, HTRF method (FGFR3). It counts as biochemical. As to conditions: FGFR3 0.30 nM, substrate (TK) 1 µM, ATP 50 µM. How it is done: as §1

The next series deals with T4, FGFR4 (Homo sapiens, UniProt P22455).
T4 construct: purchased Carna 08-136
The experiment in a line: FGFR1-4 enzymology, HTRF method (FGFR4). It is filed as biochemical. As to conditions: FGFR4 10 nM, substrate (TK) 1 µM, ATP 50 µM. Here is the method: as §1

The next series concerns the target FGFR2 V564I (Homo sapiens, UniProt P21802, V564I). The experiment in a line: FGFR2 and FGFR3 mutant enzymology, HTRF method (FGFR2 V564I). It counts as biochemical. As to conditions: kinase 0.03 nM, substrate 1 µM, ATP 20 µM. Here is the method:
(§2) The inhibitory effects of the compounds on the enzymatic activities of FGFR2 and FGFR3 mutants by using HTRF method (PerkinElmer, 62TK0PEJ). 2× Enzyme and 2× substrate /ATP mixed solutions were prepared using a buffer solution.
(§3) The compound stock solution was diluted to 100× working concentration using DMSO. 50 nL/well of the compound was transferred to a 384-well plate using Echo, with 2 replicate wells per concentration. 2.5 µL/well of 2× kinase solution was added to reaction wells, mixed and incubated at 25°C for 10 min. 2.5 µL/well of 2× substrate/ATP solution was added to reaction wells and incubated at 25°C for 50 min. 2× Streptavidin-XL665/Cryptate-antibody mixed solution was prepared using a detection buffer solution (containing EDTA). 5 µL/well of a kinase detection reagent was added to the reaction wells and incubated at 25°C for 60 min. Fluorescence signals at 620 nm (Cryptate) and 665 nm (XL665) were read by a multifunctional microplate reader. According to the test results, the inhibition rate was calculated. […] IC50 (median inhibitory concentration) of the compound was calculated using the GraphPad nonlinear fitting formula, Y = Bottom + (Top-Bottom)/(1+10^((LogIC50-X) ×HillSlope)), in which X: the logarithmic value of the concentration of the compound; and Y: the inhibition rate of the compound (% inhibition).

In the next series the target is FGFR2 V564F (Homo sapiens, UniProt P21802, V564F). The experiment in a line: FGFR2 and FGFR3 mutant enzymology, HTRF method (FGFR2 V564F). The following applies: kinase 0.02 nM, substrate 1 µM, ATP 15 µM. It is filed as biochemical. Here is the method: as §2, §3
The target in another series is FGFR2 N549H (Homo sapiens, UniProt P21802, N549H). Put plainly: FGFR2 and FGFR3 mutant enzymology, HTRF method (FGFR2 N549H). As to conditions: kinase 0.02 nM, substrate 1 µM, ATP 9 µM. It is filed as biochemical. Here is the method:
as §2, §3

A further series deals with FGFR3 K650M (Homo sapiens, UniProt P22607, K650M). Put plainly: FGFR2 and FGFR3 mutant enzymology, HTRF method (FGFR3 K650M). It counts as biochemical. As to conditions: kinase 0.10 nM, substrate 1 µM, ATP 12 µM. How it is done:
as §2, §3

The next series concerns the target FGFR3 V555M (Homo sapiens, UniProt P22607, V555M). The experiment in a line: FGFR2 and FGFR3 mutant enzymology, HTRF method (FGFR3 V555M). As to conditions: kinase 0.55 nM, substrate 1 µM, ATP 20 µM. It is filed as biochemical. Here is the method:
as §2, §3

Series [1] is described as follows: Pharmacokinetic study on mouse brain tissue (plasma/cerebrospinal fluid/brain tissue). It is filed as in vivo. The following applies: ICR mice, intragastric administration 10 mg/kg; for Tmax / half-life: male, mouse, po. Here is the method: An appropriate amount of the test substance was weighed and formulated into a 1 mg/mL transparent and clear solution using 10% DMSO + 5% HS-15 + 85% Saline for intragastric administration. 24 healthy male ICR mice (Charles River, SPF grade) were taken, with 3 animals per time point. Blood samples were collected at 15 min, 0.5, 1, 2, 4, 6, 8, and 24 h after intragastric administration of the test substance (10 mg/kg). The blood sample was anticoagulated with EDTA-K2 and then centrifuged at 6000 g at 4°C for 5 min to separate plasma. The plasma was stored at - 70°C for testing. After blood collection, the animal was sacrificed to collect cerebrospinal fluid, which was stored at -70°C for testing. The brain tissue was rinsed with ice-cold normal saline to remove the residual blood, blotted dry with absorbent paper, and then stored at -70°C for testing. The drug concentration of the specified compound in the plasma/cerebrospinal fluid/brain tissue was determined using LC-MS/MS method (with Gliclazide as an internal standard). The main pharmacokinetic parameters were calculated using a Winnolin 8.3 noncompartmental model.

Series [2] is described as follows: Pharmacokinetic study in rats in vivo. As to conditions: SD rats; for F: intragastric 5 mg/kg versus intravenous 1 mg/kg; for AUC0-t / Cmax / half-life: male, rat, po, Plasma, intragastric administration 5 mg/kg. How it is done:
An appropriate amount of the test substance was weighed and formulated into a 0.5 mg/mL transparent and clear solution using 10% DMSO + 5% HS-15 + 85% Saline for intravenous administration. The test substance was formulated into a 1 mg/mL uniform suspension using 10% DMSO + 5% HS-15 + 85% Saline for intragastric administration. 6 healthy male SD rats (Charles River, SPF grade) were taken, with 3 animals assigned to the intravenous group and three to the intragastric group, respectively. With 3 animals per time point, blood samples were collected via the jugular vein. Blood samples were collected at 5 min, 15 min, 0.5, 1, 2, 4, 8, and 24 h after intravenous administration of the test substance (1 mg/kg), and blood samples were collected at 15 min, 0.5, 1, 2, 4, 6, 8, and 24 h after intragastric administration of the test substance (5 mg/kg). After anticoagulation with EDTA-K2, the blood samples were centrifuged at 6000 g at 4°C for 5 min to separate plasma, and all plasma samples were stored at -70°C for testing. The drug concentration of the test substance in plasma was determined by LC-MS/MS method (with gliclazide as an internal standard), and the main pharmacokinetic parameters were calculated by Winnolin 8.3 non-compartment model. The intragastric administration results are as follows: […]

T1 sequence (P11362 22-822): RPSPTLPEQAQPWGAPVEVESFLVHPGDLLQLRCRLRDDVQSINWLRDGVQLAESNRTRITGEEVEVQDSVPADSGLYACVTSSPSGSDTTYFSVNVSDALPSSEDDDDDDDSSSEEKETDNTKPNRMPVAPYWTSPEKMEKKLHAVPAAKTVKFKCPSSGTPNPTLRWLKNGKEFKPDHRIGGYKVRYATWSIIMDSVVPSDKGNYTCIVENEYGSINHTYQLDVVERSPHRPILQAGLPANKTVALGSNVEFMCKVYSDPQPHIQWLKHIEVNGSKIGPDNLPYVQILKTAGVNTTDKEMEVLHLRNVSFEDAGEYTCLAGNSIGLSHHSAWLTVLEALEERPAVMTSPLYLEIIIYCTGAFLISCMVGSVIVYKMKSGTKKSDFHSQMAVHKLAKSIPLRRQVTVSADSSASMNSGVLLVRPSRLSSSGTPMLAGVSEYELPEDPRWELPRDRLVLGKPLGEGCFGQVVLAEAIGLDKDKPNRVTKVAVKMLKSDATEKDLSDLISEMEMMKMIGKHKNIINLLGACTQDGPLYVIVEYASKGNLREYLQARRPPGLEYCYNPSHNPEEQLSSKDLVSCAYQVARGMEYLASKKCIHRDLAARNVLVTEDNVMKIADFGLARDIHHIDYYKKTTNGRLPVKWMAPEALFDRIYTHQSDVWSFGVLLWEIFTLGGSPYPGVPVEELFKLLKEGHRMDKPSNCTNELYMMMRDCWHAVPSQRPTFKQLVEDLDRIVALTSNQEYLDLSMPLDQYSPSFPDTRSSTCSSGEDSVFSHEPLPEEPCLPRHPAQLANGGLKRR
T3 sequence (P22607 23-806): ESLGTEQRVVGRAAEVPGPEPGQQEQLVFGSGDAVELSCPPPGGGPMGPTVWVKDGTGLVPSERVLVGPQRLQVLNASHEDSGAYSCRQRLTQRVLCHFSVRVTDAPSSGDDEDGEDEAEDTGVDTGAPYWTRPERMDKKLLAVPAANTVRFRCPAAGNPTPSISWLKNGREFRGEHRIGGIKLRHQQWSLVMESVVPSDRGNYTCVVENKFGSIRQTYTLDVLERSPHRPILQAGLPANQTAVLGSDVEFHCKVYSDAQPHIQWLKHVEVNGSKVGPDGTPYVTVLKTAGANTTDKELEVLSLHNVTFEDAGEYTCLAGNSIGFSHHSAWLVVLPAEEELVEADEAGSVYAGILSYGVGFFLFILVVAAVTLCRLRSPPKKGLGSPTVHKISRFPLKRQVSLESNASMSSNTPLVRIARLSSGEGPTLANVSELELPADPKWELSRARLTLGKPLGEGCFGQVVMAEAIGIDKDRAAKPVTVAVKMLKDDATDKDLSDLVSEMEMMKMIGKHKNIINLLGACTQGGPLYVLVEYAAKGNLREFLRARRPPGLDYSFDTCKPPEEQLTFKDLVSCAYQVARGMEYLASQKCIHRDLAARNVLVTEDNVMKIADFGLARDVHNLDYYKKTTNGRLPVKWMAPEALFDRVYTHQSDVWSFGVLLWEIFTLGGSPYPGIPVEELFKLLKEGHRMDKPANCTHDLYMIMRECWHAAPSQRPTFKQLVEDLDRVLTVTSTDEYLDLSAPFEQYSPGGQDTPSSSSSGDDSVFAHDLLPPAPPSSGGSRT
T2 sequence (P21802 22-821): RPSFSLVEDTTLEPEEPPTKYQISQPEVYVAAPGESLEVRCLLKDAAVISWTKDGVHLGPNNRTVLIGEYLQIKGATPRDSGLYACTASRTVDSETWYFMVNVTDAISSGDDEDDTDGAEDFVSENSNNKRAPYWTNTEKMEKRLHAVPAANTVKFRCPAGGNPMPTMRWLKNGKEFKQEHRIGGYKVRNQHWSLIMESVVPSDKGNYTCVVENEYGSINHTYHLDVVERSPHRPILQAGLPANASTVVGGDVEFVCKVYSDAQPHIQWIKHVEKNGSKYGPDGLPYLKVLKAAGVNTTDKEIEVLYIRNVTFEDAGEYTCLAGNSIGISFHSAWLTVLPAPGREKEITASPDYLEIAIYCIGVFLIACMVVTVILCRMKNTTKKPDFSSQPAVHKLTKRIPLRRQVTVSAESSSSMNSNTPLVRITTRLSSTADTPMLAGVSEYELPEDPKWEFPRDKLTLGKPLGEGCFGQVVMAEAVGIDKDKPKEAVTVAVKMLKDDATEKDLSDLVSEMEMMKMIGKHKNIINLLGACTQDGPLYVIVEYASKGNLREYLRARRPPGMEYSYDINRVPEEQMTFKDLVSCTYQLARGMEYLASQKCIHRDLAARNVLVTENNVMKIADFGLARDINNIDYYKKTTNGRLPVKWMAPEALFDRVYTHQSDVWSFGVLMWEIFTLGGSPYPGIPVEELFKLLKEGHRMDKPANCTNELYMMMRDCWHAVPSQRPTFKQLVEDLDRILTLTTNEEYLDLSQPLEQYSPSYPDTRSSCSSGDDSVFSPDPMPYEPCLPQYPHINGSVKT
T4 sequence (P22455 22-802): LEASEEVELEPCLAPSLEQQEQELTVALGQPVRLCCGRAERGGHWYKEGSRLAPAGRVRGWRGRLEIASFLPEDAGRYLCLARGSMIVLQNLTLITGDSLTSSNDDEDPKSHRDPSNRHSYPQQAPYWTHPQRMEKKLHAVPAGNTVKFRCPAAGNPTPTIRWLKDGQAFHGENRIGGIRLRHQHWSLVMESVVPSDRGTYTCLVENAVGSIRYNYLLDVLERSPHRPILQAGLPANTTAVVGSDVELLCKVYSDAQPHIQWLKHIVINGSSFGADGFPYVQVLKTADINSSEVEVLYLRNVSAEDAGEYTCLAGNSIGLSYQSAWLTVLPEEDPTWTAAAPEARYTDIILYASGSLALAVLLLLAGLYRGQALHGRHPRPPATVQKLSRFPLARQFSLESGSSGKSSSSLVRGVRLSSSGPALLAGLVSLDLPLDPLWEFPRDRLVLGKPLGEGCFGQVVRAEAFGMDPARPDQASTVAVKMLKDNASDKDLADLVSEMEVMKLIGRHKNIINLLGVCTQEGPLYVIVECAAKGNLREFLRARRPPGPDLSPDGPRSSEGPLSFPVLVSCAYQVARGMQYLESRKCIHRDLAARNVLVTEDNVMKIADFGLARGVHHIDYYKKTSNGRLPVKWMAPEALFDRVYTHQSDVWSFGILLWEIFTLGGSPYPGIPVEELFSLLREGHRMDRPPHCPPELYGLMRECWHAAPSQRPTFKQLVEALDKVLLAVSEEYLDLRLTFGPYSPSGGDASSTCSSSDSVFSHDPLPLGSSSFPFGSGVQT
FGFR3 V555M, sequence (P22607 23-806 V555M): as the sequence (P22607 23-806) above, with V533M counted along it
FGFR2 N549H, sequence (P21802 22-821 N549H): as the sequence (P21802 22-821) above, with N528H counted along it
FGFR2 V564I, sequence (P21802 22-821 V564I): as the sequence (P21802 22-821) above, with V543I counted along it
FGFR3 K650M, sequence (P22607 23-806 K650M): as the sequence (P22607 23-806) above, with K628M counted along it
FGFR2 V564F, sequence (P21802 22-821 V564F): as the sequence (P21802 22-821) above, with V543F counted along it

As usually defined, the IC50 is the midpoint of a concentration-inhibition curve. Lower therefore signals greater potency. In the case of `C=C(C(=O)Nc1ccc(-c2c(-c3ccc(Oc4nccc(C)n4)c(F)c3)c3c(N)ncnc3n2C)c(F)c1)C1CC1` [Compound 5, N-(4-(4-amino-5-(3-fluoro-4-((4-methylpyrimidin-2-yl)oxy)phenyl)-7-methyl-7H-pyrrolo[2,3-d]pyrimidin-6-yl)-3-fluorophenyl)-2-cyclopropylacrylamide], the concentration for half-maximal inhibition (IC50) at FGFR1 was 550 nM; at FGFR2 it was 7.3 nM; at FGFR3, 246 nM; on FGFR4, greater than 1000 nM.
The Tmax is the time at which the peak concentration occurs. As a reminder, the half-life is how long it takes for the measured level to halve. What is called Cmax is the highest concentration seen after dosing. As for `C=C(C(=O)Nc1ccc(-c2c(-c3ccc(Oc4nccc(C)n4)c(F)c3)c3c(N)ncnc3n2C)c(Cl)c1)C1CC1` [Compound 4, N-(4-(4-amino-5-(3-fluoro-4-((4-methylpyrimidin-2-yl)oxy)phenyl)-7-methyl-7H-pyrrolo[2,3-d]pyrimidin-6-yl)-3-chlorophenyl)-2-cyclopropylacrylamide], the IC50 is 165 nM at FGFR1; 1.7 nM on FGFR2; 64.2 nM at FGFR3; greater than 1000 nM at FGFR4; 15 nM against FGFR2 V564I; 0.5 nM at FGFR2 V564F. Also, the IC50 on FGFR2 N549H was found to be 5.2 nM; at FGFR3 K650M it was 271 nM; at FGFR3 V555M it was 120 nM. Further, the AUC0-t was 277 h*ng/mL or h*ng/g in series [1] (Brain tissue), 9 h*ng/mL or h*ng/g in series [1] (Cerebrospinal fluid), 21966 h*ng/mL or h*ng/g in [1] (Plasma) and 787 ng·h/mL in series [2]. Besides, the Tmax in [1] (Brain tissue) came out at 1 h; in series [1] (Cerebrospinal fluid), 1 h; in series [1] (Plasma), 0.5 h. Also, the figures for the half-life in [1] (Brain tissue), in series [1] (Plasma) and in [2] were 1.7 h, 1.8 h and 0.9 h, respectively. This molecule returned a F in series [2] of 24.2%. Further, the Cmax in series [2] was found to be 273 ng/mL.
Take `C=C(C(=O)Nc1ccc(-c2c(-c3ccc(Oc4nccc(C)n4)c(F)c3)c3c(N)ncnc3n2C)cn1)C1CC1` [Compound 2, N-(5-(4-amino-5-(3-fluoro-4-((4-methylpyrimidin-2-yl)oxy)phenyl)-7-methyl-7H-pyrrolo[2,3-d]pyrimidin-6-yl)pyridin-2-yl]-2-cyclopropylacrylamide]: the IC50 against FGFR1 is 407 nM; at FGFR2 it was 12 nM; on FGFR3, 149 nM; at FGFR4, greater than 1000 nM.
In the same order, the values of `C=C(C(=O)Nc1ccc(-c2c(-c3ccc(Oc4cccc(Cl)n4)c(F)c3)c3c(N)ncnc3n2C)cc1)C1CC1` [Compound 9, N-(4-(4-amino-5-(4-((6-chloropyridin-2-yl)oxy)-3-fluorophenyl)-7-methyl-7H-pyrrolo[2,3-d]pyrimidin-6-yl)phenyl)-2-cyclopropylacrylamide] are greater than 1000 nM, 65.5 nM, greater than 1000 nM and greater than 1000 nM.
In the case of `C=C(C(=O)Nc1ccc(-c2c(-c3ccc(Oc4nccc(C)n4)c(F)c3)c3c(N)ncnc3n2C)cc1)C1CC1` [Compound 1, N-(4-(4-amino-5-(3-fluoro-4-((4-methylpyrimidin-2-yl)oxy)phenyl)-7-methyl-7H-pyrrolo[2,3-d]pyrimidin-6-yl)phenyl]-2-cyclopropylacrylamide], the IC50 was greater than 1000 nM against FGFR1, 23.8 nM against FGFR2, greater than 1000 nM against FGFR3 and greater than 1000 nM on FGFR4. Moreover, the AUC0-t is 524 h*ng/mL or h*ng/g in [1] (Brain tissue), 59 h*ng/mL or h*ng/g in [1] (Cerebrospinal fluid), 50857 h*ng/mL or h*ng/g in series [1] (Plasma) and 3190 ng·h/mL in series [2]. Besides, the Tmax was determined as 1 h in series [1] (Brain tissue), 0.5 h in series [1] (Cerebrospinal fluid) and 1 h in series [1] (Plasma). In addition, the half-life in series [1] (Brain tissue) is 3 h; in series [1] (Cerebrospinal fluid), 6.3 h; in [1] (Plasma), 3.1 h; in series [2], 1.9 h. Besides, the F in series [2] is recorded as 90.8%. The Cmax in series [2] was found to be 938 ng/mL.
